Results from patent publication US6835735B2, “4-(phenylamino)-[1,4]dioxano[2,3-g]quinazoline derivatives and process for preparing the same” (Korea Institute of Science and Technology, priority 2001, dated 2004).
Converted amounts (≈) assume the structure as drawn.

Key:
[1] = Measurement of the solubility of compounds in water (HPLC calibration curve); assay type: physicochemical; details: supersaturated in 1 ml of water, centrifuged, supernatant by HPLC; read-out: Solubility (mg/10 ml of water)
Description: That is, 1 mg of each of the above compounds was completely dissolved in 1 ml of DMSO, which was then subjected to HPLC employing C18 resin, and the peak area of chromatogram was calculated. And then, 1 mg of each of the same compound was dissolved in 10 ml of DMSO, which was then subjected to the same HPLC as the above to obtain a chromatogram, and the peak area was calculated therefrom. A solubility calibration curve was prepared by employing the above two data, and a linear function was deduced from that to complete a calibration curve (X axis: area, Y axis: logarithm value of concentration).
Each of the same compounds was supersaturated in 1 ml of water, which was then centrifuged at 14,000 rpm for 1 min. The precipitate was separated from the supernatant which was then subjected to the same HPLC as the above to obtain a chromatogram, and the peak area was calculated therefrom. The obtained value was substituted to the above calibration curve to measure the solubility by mg/10 ml of water (see: Table 1).

[2] = target: T1, purified human EGFR kinase (Homo sapiens, UniProt P00533); experiment: Inhibition of EGFR tyrosine kinase (P32-ATP, biotin-conjugated substrate); assay type: biochemical; details: purified human EGFR kinase, 50 μM ATP, 30° C., 10 min
T1 construct: purchased Promega
Description: The test was accomplished in a 20 μl reaction volume using 0.1 unit per reaction of purified human EGFR kinase (Promega, U.S.A.) and 50 μM biotin-conjugated substrate for tyrosine kinase (Promega, U.S.A.) and, 50 μM P^32-γ-ATP (0.2 μCi) and 20 mM Tris-HCl (pH 7.5) were employed as an ATP and a reaction solution, respectively. The test was carried out at 30° C. for 10 min, and terminated by the addition of 10 μl of 30% phosphate solution. The half of the reaction product was spotted onto avidin-layered PVDF membrane, which was then washed with 20 mM Tris-HCl (pH 8.0) and 0.2N NaCl aqueous solution for more than 2 hours.

A431 cancer cell = experiment: Inhibition of cancer cell growth (sulforhodamine B); assay type: cell-based; details: Homo sapiens, A-431, 48 h, A431 cells, grown 2 days with compound, SRB staining
Description: A431 cancer cell was cultivated at 37° C. under an environment of 5% (v/v) CO2 employing RPMI 1640 medium containing 10% (v/v) fetal calf serum. […] The above cells was grown again for 2 days, and then, fixed with formalin solution (Sigma Chem. Co., U.S.A.) and washed with water. After that, the cells was dried in the atmosphere, stained with 0.1% (v/v) sulforhodamine B solution (Sigma Chem. Co., U.S.A.) for 30 min and wash with 1% (v/v) acetic acid aqueous solution. Then, dye attached to cells was extracted with 0.1M Tris-HCl (pH 8.0) and the absorbances of the remaining culture were measured at 520 nm by the aid of microplate reader. And then, the concentration of the compound by which cell growth is 50% inhibited was represented as GI50(s: Table 3).

T1 sequence (P00533 25-1210): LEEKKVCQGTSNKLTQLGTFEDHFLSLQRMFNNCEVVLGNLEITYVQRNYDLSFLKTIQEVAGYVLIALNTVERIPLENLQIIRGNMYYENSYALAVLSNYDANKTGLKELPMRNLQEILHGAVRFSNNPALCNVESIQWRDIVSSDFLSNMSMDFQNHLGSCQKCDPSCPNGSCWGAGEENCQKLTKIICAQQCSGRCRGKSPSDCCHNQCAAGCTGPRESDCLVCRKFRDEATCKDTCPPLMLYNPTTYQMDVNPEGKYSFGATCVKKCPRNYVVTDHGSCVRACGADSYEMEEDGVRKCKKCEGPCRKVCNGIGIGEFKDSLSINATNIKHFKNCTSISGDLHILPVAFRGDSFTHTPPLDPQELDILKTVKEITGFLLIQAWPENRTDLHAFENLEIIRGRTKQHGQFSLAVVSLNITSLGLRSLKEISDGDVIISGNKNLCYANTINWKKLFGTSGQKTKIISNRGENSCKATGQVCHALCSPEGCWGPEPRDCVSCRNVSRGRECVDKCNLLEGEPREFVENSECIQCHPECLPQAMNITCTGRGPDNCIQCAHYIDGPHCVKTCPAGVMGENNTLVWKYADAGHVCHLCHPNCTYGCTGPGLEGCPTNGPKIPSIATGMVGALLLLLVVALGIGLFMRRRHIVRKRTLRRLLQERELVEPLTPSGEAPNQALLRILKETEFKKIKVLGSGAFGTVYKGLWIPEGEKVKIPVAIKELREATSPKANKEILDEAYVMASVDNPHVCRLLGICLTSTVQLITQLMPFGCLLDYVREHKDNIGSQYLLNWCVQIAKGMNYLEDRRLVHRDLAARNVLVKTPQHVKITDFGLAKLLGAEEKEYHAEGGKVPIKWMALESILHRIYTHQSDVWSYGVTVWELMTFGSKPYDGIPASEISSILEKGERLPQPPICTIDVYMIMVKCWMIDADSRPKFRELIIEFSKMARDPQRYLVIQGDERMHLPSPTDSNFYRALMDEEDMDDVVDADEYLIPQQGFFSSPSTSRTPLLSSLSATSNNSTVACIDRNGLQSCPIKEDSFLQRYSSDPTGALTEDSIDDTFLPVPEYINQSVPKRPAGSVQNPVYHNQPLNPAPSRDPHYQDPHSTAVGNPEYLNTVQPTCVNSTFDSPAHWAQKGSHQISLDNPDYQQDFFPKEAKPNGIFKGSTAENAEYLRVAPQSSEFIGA

solubility thermodynamic [1]: 1040 µg/mL (≈ 3050 µM)
IC50 [2]: > 293 nM
GI50 (A431 cancer cell): 1.16 µg/mL (≈ 3.4 µM)
melting point: 257 to 260 °C
Compound: COCC1COc2cc3ncnc(Nc4cccc(F)c4)c3cc2O1 (stereo not shown) [Example 8, (3-fluorophenyl)-(7-methoxymethyl-[1,4]-dioxano[2,3-g]quinazolin-4-yl)-amine]
